PubChem BioAssay AID1996
Values after ≈ are worked out from the molar mass of the structure shown.

Conditions: buffer; pH 7.4; 200.0 µM

Structure (SMILES) | solubility kinetic [µg/mL]
COc1ccc(-c2nnc(SCC(=O)Nc3c(Cl)cc(Cl)cc3C(=O)O)o2)cc1 | > 68.1
CC(C)C(=O)Nc1ccc(N2CCCC2)c(Cl)c1 | 10.4 (≈ 39 µM)
COc1ccc(C(=O)Nc2cc(OC)c(Cl)cc2OC)cc1 | < 0.7
Cc1cc(C)nc(NC(=O)c2cccs2)n1 | > 35
CCC(=O)Oc1ccc(NC(=O)c2ccco2)cc1 | > 38.9
COc1ccc(-c2nc(NC(C)=O)sc2-c2ccccc2)cc1 | 4 (≈ 12.3 µM)
O=C(NC(=S)NCCc1ccccc1)c1cccc(Cl)c1 | 0.6 (≈ 1.88 µM)
O=C(Nc1nccs1)c1ncc(Cl)c(Cl)c1Cl | 12.5 (≈ 40.5 µM)
Cc1cccc(NS(=O)(=O)c2ccc3[nH]c(=O)[nH]c3c2)c1C | 5 (≈ 15.8 µM)
O=C(NCc1cccnc1)NC1CC(=O)N(c2ccc3c(c2)OCCO3)C1 (stereo not drawn) | > 55.3
Cc1ccc(C(=O)NCCNS(=O)(=O)c2ccccc2[N+](=O)[O-])cc1 | > 54.5
CCC(=O)Nc1ccc2c(c1)nc(CN1CCCCC1)n2C | > 45.1
CCc1noc(C)c1C(=O)OCC(=O)c1ccc(OC)c(OC)c1 | 46 (≈ 138 µM)
CC1(C)CC(=O)N(c2cc(Cl)cc(Cl)c2)C(=O)C1 | 11.7 (≈ 40.9 µM)
Cc1ccc(S(=O)(=O)NCCCn2ccnc2)cc1C(=O)NC(C)C | > 54.7
Cc1ccc2oc(C(=O)N3CCCCCC3)c(C)c2c1 | 16.6 (≈ 61.2 µM)
CN(C)C(=O)N1CCNCC1.Cl | > 29.1
CC1(C)CC(=O)C=C(NCc2cccc(C(F)(F)F)c2)C1 | > 44.6
Cc1ccc(C(=O)N2CCN(c3ccccn3)CC2)cc1 | > 42.2

Structure (SMILES) | solubility kinetic [µg/mL]
CC1CN(c2ccc([N+](=O)[O-])cn2)CC(C)O1 (stereo not drawn) | > 35.6
COc1ccc(NC(=O)c2ccc(Cl)cc2)c[n+]1[O-] | > 41.8
CCn1c(=N)n(CC(O)COc2ccc(C)cc2)c2ccccc21.Cl (stereo not drawn) | > 54.3
O=C(Nc1ncc([N+](=O)[O-])s1)c1cccs1 | 37.2 (≈ 146 µM)
Cc1cc(C(=O)NC(C)C2CCCO2)no1 (stereo not drawn) | > 33.6
COc1cccc(CN2CCN(C(=O)Cc3ccccc3OC)CC2)c1 | > 53.2
CN(C)CCOC(=O)CCCCCCCCC(=O)OCCN(C)C.Cl | > 62.6
CN(C(=O)c1ccccc1-c1ccccc1C(=O)O)c1ccccc1 | 44.5 (≈ 134 µM)
CC1(C)CC(=O)C=C(Nc2ccc(Cl)cc2)C1 | 34.2 (≈ 137 µM)
O=C(CSc1ccc(-c2ccncc2)nn1)N1CCCC1 | > 45.1
c1ccc(-c2cc(-c3ccccc3)ncn2)cc1 | 4.6 (≈ 19.8 µM)
c1ccc2c(SCc3cn4ccccc4n3)nncc2c1 | > 43.9
CCOC(=O)C1(Cc2ccccc2)C(=O)N(CCCN(C)C)c2ccccc21.Cl (stereo not drawn) | 57
CC(C)c1nc(Cl)c(C#N)c2c1CCC2 | 4.3 (≈ 19.5 µM)
CC(=O)c1csc(Nc2ccccc2Cl)n1 | 32.8 (≈ 130 µM)
CCS(=O)(=O)c1ccc2oc(Nc3cccc(OC)c3)nc2c1 | 8.2 (≈ 24.7 µM)
O=C(/C=C/c1ccc(S(=O)(=O)N2CCOCC2)cc1)Nc1cc(F)ccc1F | 5.5 (≈ 13.5 µM)
CCOCCn1c(=O)c2c(nc3n2CCCN3Cc2ccccc2)n(C)c1=O | > 57.5

More lines, now with the values ahead:

solubility kinetic [µg/mL] | Structure (SMILES)
16.6 (≈ 69.9 µM) | O=C(CCC1CCCCC1)NC1CCCCC1
> 50 | Cc1ccc(S(=O)(=O)NC(Cc2ccccc2)C(=O)O)cc1C (stereo not drawn)
> 47.2 | O=C(CNC(=O)c1ccccc1)NCCc1ccc(O)c(O)c1
33.3 (≈ 93.2 µM) | CC1CCCC(NC(=O)COC(=O)c2cc3ccccc3oc2=O)C1C (stereo not drawn)
35 (≈ 109 µM) | CCNC(=O)N1CCCC(C(=O)c2ccc(OC)c(OC)c2)C1 (stereo not drawn)
4.2 (≈ 14.6 µM) | CC1(C)C2CCC1(C)C(OC(=O)CNc1ccccc1)C2 (stereo not drawn)
43.2 (≈ 128 µM) | O=C(CC(Nc1cccc(Cl)c1Cl)C(=O)O)c1ccccc1 (stereo not drawn)
3.8 (≈ 12.2 µM) | CCOC(=O)/C=C/C(=O)Nc1ccc(Oc2ccccc2)cc1
3.7 (≈ 10.3 µM) | O=C(NC1CCN(C(=O)Nc2ccc(F)cc2)CC1)c1ccc(F)cc1
53.4 (≈ 142 µM) | O=C(OCC(=O)N1CCOCC1)c1cc(-c2ccccc2)nc2ccccc12
5.8 (≈ 20.8 µM) | Cc1ccc(C(=O)NC2CCc3ccccc3C2=O)cc1 (stereo not drawn)
8.1 (≈ 29.6 µM) | Cc1c(C(=O)NCc2ccco2)oc2c(F)cccc12
> 49.3 | O=C(CCc1ccccc1)NC(=S)Nc1cccc(C(=O)O)c1
41.4 (≈ 116 µM) | COc1cccc(NC(=O)CN(C)CC(=O)NC(C)c2ccccc2)c1 (stereo not drawn)
33.5 (≈ 90.4 µM) | COc1cc(CN2CCC(Cc3ccccc3)CC2)c([N+](=O)[O-])cc1OC
> 51.8 | CCCCN1C(=O)C(=O)N(CC(=O)Nc2ccccc2C(C)=O)C1=O

solubility kinetic [µg/mL] | Structure (SMILES)
> 39.8 | O=C(COC(=O)c1ccccc1F)NC1CCCC1
41.7 (≈ 142 µM) | CN(C(=O)Cn1cc([N+](=O)[O-])ccc1=O)C1CCCCC1
> 44.2 | O=C(NCC(=O)N1CCCCCC1)c1ccc(Cl)cc1
> 46.3 | COC(=O)c1ccc(S(=O)(=O)NCc2ccccc2)n1C
8.8 (≈ 26.7 µM) | O=C(COc1ccccc1F)Nc1nc(-c2ccccn2)cs1
60.3 (≈ 137 µM) | CC1(c2ccccc2)NC(=O)N(CC(=O)N(c2ccccc2)C2CCS(=O)(=O)C2)C1=O (stereo not drawn)
0.9 (≈ 2.57 µM) | O=C(CN1CCc2ccccc2C1)Nc1ccc(OC(F)(F)F)cc1
> 36.9 | CSC1=NC2(C[C@H]2c2ccccc2)C(=O)N1C (stereo partly drawn)
> 49.6 | O=C(NCC1CCCO1)c1cccc(NC(=O)c2cccs2)c1 (stereo not drawn)
4.5 (≈ 8.58 µM) | COc1cc(S(=O)(=O)N2CCOCC2)ccc1NC(=O)COC(=O)c1cc(OC)c(OC)c(OC)c1
6 (≈ 18.4 µM) | O=C(Oc1cccc(C(=S)N2CCCCC2)c1)c1ccccc1
10.2 (≈ 32.1 µM) | Cc1ccc(NC(CC(=O)c2ccccc2)C(=O)O)cc1Cl (stereo not drawn)
> 51.4 | CC(=O)NC(CC(=O)OCc1ccc([N+](=O)[O-])cc1)c1ccccc1 (stereo not drawn)
9.3 (≈ 29.4 µM) | O=C(Nc1cccc(Cl)c1)OC1CCCCc2cccnc21 (stereo not drawn)
21.8 (≈ 99 µM) | Cc1ccccc1CC1SC(N)=NC1=O (stereo not drawn)
